Results: a melting point compilation (Tetko et al.; mined from patent text by program, amines drawn as free bases though some values may be those of a salt)

Row | melting point [°C] | SMILES
1 | 220 | CCOC(=O)c1cn2c(cc(-c3cccc(Cl)c3)c3cc(C(c4ccc(Cl)cc4)c4nncn4C)ccc32)n1 (stereo not given)
2 | 132 to 133 | Cc1cc(C(=O)N2Cc3cccn3Cc3ccccc32)ccc1C1=CCCCC1C (stereo not given)
3 | 94 to 97 | COC(=O)C1CSc2sccc2C1=O (stereo not given)
4 | 178 to 181 | CCOCc1nc2c(N)nc3ccccc3c2n1CCOCCNC(=O)N1CCOCC1
5 | 234 to 235 | CC1(C)C(=O)Nc2ccc(-c3cccc([N+](=O)[O-])c3)cc21
6 | 143 to 144 | CCCCOc1c(CO)n(CC(C)(C)C)c(=O)c2ccc(F)cc12
7 | 57 to 62 | CCN(CC)c1c(C(=O)O)ccc(OC)c1OC
8 | 223 to 226 | O=C(O)C1=Cc2ccccc2NC1
9 | 205 to 210 | CC(C)(C)c1cc(C(=O)Nc2cccc(SCc3cncc4ccccc34)c2)ccc1O
10 | 153 to 155 | COc1ccccc1-c1nc(-c2ccccc2)nc(-c2ccccc2O)n1
11 | 166 to 167 | NNC(=O)Nc1nccs1
12 | 205 to 206 | Cc1c(Br)c2c(c(C)c1NC(=O)CC(C)(C)C)CC(C)(C)O2
13 | 112 to 114 | CS(=O)(=O)c1ccc(-c2cc(C(=O)CCCO)nn2C2CCCCC2)cc1
14 | > 260 | CCOC(=O)CN1C[C@@H](C(N)=O)N(CC(=O)OCC)C[C@@H]1C(N)=O
15 | 139 to 141 | COc1cc(C)cc(C(O)=S)c1OC
16 | 102 to 105 | CC(C)CC(C(=O)O)C(=O)O
17 | 94 | Nc1nc(SCc2nc(C3CC3)no2)ncc1Cc1ccccc1
18 | 164 to 166 | Cc1ccc(S(=O)(=O)NC(=O)C2C(=O)CC(c3ccccc3)CC2=O)cc1 (stereo not given)
19 | 78 to 80 | CC(=NO)C(=O)c1ccccc1OCc1ccccc1
20 | 136 to 137 | O=C(O)[C@@H]1C[C@@H](O)CN1C(=O)OCc1ccc([N+](=O)[O-])cc1
21 | 237 to 239 | NS(=O)(=O)c1cc(C(=O)O)c(NCc2ccccc2)cc1Oc1ccccc1
22 | 87 to 87.9 | CCCc1ccc(-c2cnc(C#N)c(C#N)n2)cc1
23 | 116 to 120 | CC(C)OC(=O)c1cc(-n2c(=O)c3c(n(C)c2=O)CCC3)c(F)cc1Br
24 | 183 to 184 | CCCc1nc2c(N)nc3ccccc3c2n1CCCCNC(=O)Nc1ccccc1
25 | 261 to 263 | O=C1CCC(N2Cc3cc(CNC(=O)Nc4ccc(Cl)c(C(F)(F)F)c4)ccc3C2=O)C(=O)N1 (stereo not given)

Row | melting point [°C] | SMILES
26 | 125 to 128 | CN1CCC(=C2c3ccccc3Sc3ccc(S(=O)(=O)C(F)(F)F)cc32)CC1
27 | 81 | CCOC(=O)c1ccc2[nH]cc(CCCI)c2c1
28 | 118 | CCOC(=O)C(=CC1(OC)C=C2OCOC2=CC1)C(=O)OCC (stereo not given)
29 | 225 to 227 | Cc1cc(Nc2cc(-c3cccc(N4Cc5cc(C(C)(C)C)ccc5C4=O)c3CO)cn(C)c2=O)nn1C
30 | 155 | Cc1nc2c(OCc3c(Cl)ccc(S(=O)(=O)N4CCC[C@H]4C(=O)NCCCNC(=O)c4ccc(C(N)=NO)cc4)c3Cl)cccn2c1Cl
31 | 91 to 93 | COC(=O)[C@@H]1CCCCCOc2ccc(cc2)C[C@H](NC(=O)OCc2ccccc2)C(=O)N[C@@H](CC(C)C)C(=O)N1
32 | 146 to 148 | CCCn1nc(-c2sc(C(=O)NC(C)C)nc2-c2ccccc2)ccc1=O
33 | 170 to 171 | c1ccc2c(c1)Cc1ccccc1N2
34 | 76.3 | O=C1N(c2cc(Cl)nc(Cl)c2)C(=O)C2(Cc3ccc(Br)cc3)CCCN12 (stereo not given)
35 | 132 | CCOC(=O)N1CCCc2nc3cc(C)ccc3c(C)c2C1
36 | 61 to 65 | COC(=O)[C@H](Cc1cccc(O)c1)NC(=O)OC(C)(C)C
37 | 127 to 129 | CCCOc1cc(OC)c2c(c1)C(=O)c1cccc(OCCN(CC)CC)c1-2
38 | 144 to 145 | CC(=O)N1CC(=O)N2CCc3ccccc3C2C1 (stereo not given)
39 | 110 to 112 | CNS(=O)(=O)c1cc(OC)c(OC)c(C(=O)NCC2CCCN2CC2CC2)c1 (stereo not given)
40 | 140 to 142 | CNCC(O)COc1cc(-c2ccc(OC)cc2)nc2cc(C)ccc12 (racemic)
41 | 110 to 115 | CC1(C)C=C(N2Cc3ccccc3C2=O)c2cc(S(=O)(=O)C(F)(F)F)ccc2O1
42 | 148 to 152 | CCCOc1ccc(S(C)(=O)=O)cc1C(=O)O
43 | 147 to 152 | CN(C)C(=O)Nc1ccc(NCc2ccc(Cl)cc2Cl)cc1N
44 | 195 to 196 | OCc1cc(OCc2ccccc2)nn1C1CCCCC1
45 | 130 to 135 | CCCCn1c(=O)n(CC=C(C)C)c(=O)c2c1ncn2S(=O)(=O)c1ccc(C)cc1
46 | 119 | CS(=O)(=O)Nc1cc2c(cc1Oc1ccc(F)cc1F)C(O)CC2 (stereo not given)
47 | 120 to 122 | CCOC(=O)c1sc2cc(OCc3cccnc3)ccc2c1S(=O)(=O)c1ccccc1
48 | 128 to 130 | C[C@H](C#Cc1scc(Cc2ccc(F)cc2)c1Cc1ccc(F)cc1)N(O)C(N)=O
49 | 149 to 157 | COc1ccccc1Oc1c(NS(=O)(=O)c2ccc(C(C)(C)C)cc2)nc(-c2ncccn2)nc1OCCOc1ncc(-c2ccccn2)cn1
50 | 79 to 80 | CCOCCNC(=O)c1cccc(-c2cccc3cc(Cc4cc(F)cc(Cl)c4)sc23)c1

Row | melting point [°C] | SMILES
51 | 253 | CCN(CC)c1ccc(-c2cc(-c3ccc(C(=O)O)cc3)ccc2CCCNC(C)C)cc1C(C)(C)C
52 | > 260 | CNC(=O)Cc1ccc2c(c1)Cc1c-2[nH]c(=O)c2nccn12
53 | 140 to 141 | c1cnn2cnnc2c1
54 | 215 to 217 | CCCn1ccc2c(c1=O)C(c1ccccc1)C(C(=O)OCC)=C(C)N2 (stereo not given)
55 | 67 to 69 | C#CCSc1ncn(C(=O)N(CC)CC)n1
56 | 130 | CCCCN1CC2CN(S(=O)(=O)c3ccc(NC(C)=O)cc3)CC(C1)C2(C)C
57 | 110 to 111 | COc1ccc(Oc2ccc(C(=O)CC(SC(C)=O)C(=O)O)cc2)cc1 (stereo not given)
58 | 126 to 127 | COc1ccc(-c2cc3ncccc3c(Cl)n2)cc1
59 | 49 to 50 | CCCCCCCCCCCCCCCCSC1OC(C)C(OC(C)=O)C(OC(C)=O)C1OC(C)=O (stereo not given)
60 | 164 | COCCC(=O)N[C@H]1CC[C@H](CCN2CCN(c3ncc(C)c4c3CCO4)CC2)CC1
61 | 173 to 175 | COC[C@@H]1Cc2ccccc2N1C(=O)OC(C)(C)C
62 | 221 to 223 | CCCc1nc2c(c(C)c(C)n3nnnc23)n1CC(C)(C)NC(=O)c1ccccc1
63 | 204 to 205 | CNc1nc(N)nc(OCC(F)(F)F)n1
64 | 242 to 243 | Cc1c2c(cc3c(=O)c4ccccc4oc13)CC(CO)O2 (stereo not given)
65 | 108 to 110 | Cc1ccc(O)c(-c2csc(N(C)C)n2)c1
66 | 93 to 94 | CCCc1ccc(S(=O)(=O)Nc2ccc(OC)nc2)cc1
67 | 135 | Fc1cccc(F)c1C1=NC(c2cc3sc(-c4ccc(OC(F)(F)F)cc4)cc3s2)CC1 (stereo not given)
68 | 199 to 201 | C[C@]12CCC(=O)N[C@@H]1CCc1cc(Sc3cccc4ccccc34)ccc12
69 | 159 to 160 | CCCCCc1cccc2c1C(=O)N(OC1C(O)C(CO)OC1n1cnc3c(N)ncnc31)C2=O (stereo not given)
70 | 238 to 240 | CC(C)(C)OC(=O)NCc1ccc(CC(=O)Nc2ccc(Nc3cc(-c4cccc5c4oc4ccccc45)ncn3)cc2)cc1
71 | 77 to 78 | COC(=O)c1ccc(CO)cc1O
72 | 145 to 147 | COC(=O)C1=C(C)NC(C(C)O)=C(C(=O)OC)C1c1ccccc1Cl (stereo not given)
73 | 36 to 39 | Cc1ccc(C(O)C2OC2C(C)(C)C)cc1 (stereo not given)
74 | 176 to 177 | COc1cc(CC(=O)O)ccc1OCc1nc(-c2ccccc2)oc1C
75 | 210 to 215 | CCCc1cc(-c2ccc(C3COC(c4c(F)cccc4F)=N3)cc2)ccc1O (stereo not given)

Row | melting point [°C] | SMILES
76 | 147 to 148 | CCCCCCc1ccc(-n2c(-c3ccc(C)cc3)ccc2-c2ccc(C)cc2)cc1
77 | 315 to 318 | O=c1[nH]c2ccccc2c2nc(-c3ccc(Cl)cc3)nn12
78 | 135 | CC(=O)c1ccc(C2(O)CC(C)(C)CC(C)(C)C2)cc1
79 | 250 to 252 | Cc1n[nH]c2c1CCc1[nH]ncc1-2
80 | 266 to 267 | COC(=O)c1[nH]c2cccc3c2c1CCNC3=O
81 | 251 to 253 | COc1cc2cc3ncc(C#N)c(Nc4ccc(Oc5ccccc5)c(Cl)c4)c3cc2cc1OCCN1CCOCC1
82 | 83 to 84 | CCCCCCC(O)C(=O)NCCS (stereo not given)
83 | 206 to 211 | N#Cc1ccc(N(Cc2ccc(OCc3ccccc3)cc2)n2cnnc2)cc1
84 | 72 to 73 | CC1(CC(CO)CO)SCCS1
85 | 142 to 144 | COc1c(NC(=O)c2ccc(-c3ccc(F)cc3)cc2)ccc2cc(CN3CCCC3)cnc12
86 | 183 to 185 | O=C(NC(=O)N1CCCCC1)c1cc(Cl)nc(Cl)c1
87 | 207 to 209 | N#CC(C(=O)Nc1ccccc1)C(=O)c1ccc[nH]1 (stereo not given)
88 | 225 to 226 | CC(O)CNc1c(F)cc2c(=O)c(C(=O)O)cn(-c3cc(N)c(F)cc3F)c2c1Cl (stereo not given)
89 | 104 | C=COCCONC(=O)c1ccc(F)cc1Nc1ccc(I)cc1F
90 | 130 to 132 | CSc1nc2c(Cl)cc(Cl)c([N+](=O)[O-])c2s1
91 | 285 to 290 | CC(C)N1CC(=O)C(C#N)=C1N
92 | 94 to 97 | CC=C1CCC2C3=CC=C4CC(O[Si](C)(C)C(C)(C)C(C)C)CCC4(C)C3CCC12C (stereo not given)
93 | 176 | O=C(c1ccc(F)cc1)C1CCN(CCCCn2c(=O)[nH]c3ccccc32)CC1
94 | 169 to 171 | Cc1[nH]c(-c2ccccc2)nc1-c1ccc(Cl)c(Cl)c1
95 | 51.5 | CN1C(=O)[C@@H](N)[C@@H]1c1ccccc1 (relative stereo)
96 | 128 to 136 | COCC(O)Cn1c2ccc(OC)cc2c2c3c(c(-c4ccccc4)cc21)C(=O)NC3=O (stereo not given)
97 | 196 to 198 | COC(=O)c1cc(-c2ccc(OCc3ccccc3)cc2)n(-c2ccc(S(N)(=O)=O)cc2)n1
98 | 128 | O=CC(=C(Cl)c1ccc(Cl)cc1Cl)c1ccc(Cl)cc1

Row | SMILES | melting point [°C]
99 | COC(=O)c1ccc(C2=NOC(c3cc(Cl)cc(Cl)c3)(C(F)(F)F)C2)c2ccccc12 (stereo not given) | 137 to 138
100 | N#Cc1nn(-c2c(Cl)cc(C(F)(F)F)cc2Cl)cc1C1CC(F)(F)C1 | 128 to 129
